Key:
Experiment in all cases: relative viability (nuclei count vs DMSO), 5 days (fraction); higher = more cells survive
[1] = compound: CC1=CC(=CC=C1)NC2=NC(=CS2)C3=CC=NC=C3 + CC(=O)c1c(C)c2cnc(Nc3ccc(N4CCNCC4)cn3)nc2n(C2CCCC2)c1=O [Palbociclib] (partner 0.5 µM)
Summary of the method: (§1)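 Five library-drug doses in √10 steps were combined with a fixed anchor-drug dose, or a single drug was given alone, by pin tool to lung cancer cell lines in 1536-well plates the day after seeding. Nuclei were stained and counted after 5 days. Relative viability is the nuclei count in treated wells over that in vehicle wells, taken as the median of duplicate plates.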

[2] = compound: CC1=CC(=CC=C1)NC2=NC(=CS2)C3=CC=NC=C3 + NC(=O)Nc1cc(-c2cccc(F)c2)sc1C(=O)N[C@H]1CCCNC1 [AZD7762] (partner 0.2 µM)
Summary of the method: as §1

[3] = compound: Cc1ccc(NC(=O)c2ccc(CN3CCN(C)CC3)cc2)cc1Nc1nc(-c2cccnc2)cs1 [Masitinib] + C[C@@H](Oc1cc(-c2cnn(C3CCNCC3)c2)cnc1N)c1c(Cl)ccc(F)c1Cl [Crizotinib] (partner 1 µM)
Summary of the method: as §1

[4] = compound: Cc1ccc(NC(=O)c2ccc(CN3CCN(C)CC3)cc2)cc1Nc1nc(-c2cccnc2)cs1 [Masitinib] + Nc1ncn([C@H]2C[C@H](O)[C@@H](CO)O2)c(=O)n1 [Decitabine] (partner 2 µM)
Summary of the method: as §1

Row | Cell Line | relative viability ([1]; first compound 0.08 µM) | relative viability ([1]; first compound 0.253 µM) | relative viability ([1]; first compound 0.8 µM) | relative viability ([1]; first compound 2.53 µM) | relative viability ([1]; first compound 8 µM) | relative viability ([2]; first compound 0.08 µM) | relative viability ([2]; first compound 0.253 µM) | relative viability ([2]; first compound 0.8 µM) | relative viability ([2]; first compound 2.53 µM) | relative viability ([2]; first compound 8 µM) | relative viability ([3]; first compound 0.01 µM) | relative viability ([3]; first compound 0.03162 µM) | relative viability ([3]; first compound 0.1 µM) | relative viability ([3]; first compound 0.3162 µM) | relative viability ([3]; first compound 1 µM) | relative viability ([4]; first compound 0.01 µM) | relative viability ([4]; first compound 0.03162 µM) | relative viability ([4]; first compound 0.1 µM) | relative viability ([4]; first compound 0.3162 µM) | relative viability ([4]; first compound 1 µM)
1 | NCI-H1355 | 0.35 | 0.282 | 0.27 | 0.285 | 0.284 | 0.657 | 0.654 | 0.513 | 0.653 | 0.558 | 1.06 | 1.1 | 1.07 | 0.746 | 1.01 | 0.351 | 0.345 | 0.393 | 0.341 | 0.367
2 | NCI-H2405 | 0.49 | 0.489 | 0.488 | – | 0.498 | 0.675 | 0.716 | 0.667 | – | 0.664 | 0.77 | 0.784 | 0.848 | 0.802 | 0.746 | 0.688 | 0.692 | 0.762 | 0.764 | 0.692
3 | NCI-H441 | 0.214 | 0.205 | 0.261 | 0.224 | 0.184 | 1.1 | 1.01 | 1.1 | 1.35 | 0.997 | 0.741 | 0.804 | 0.919 | 0.665 | 0.696 | 0.214 | 0.23 | 0.262 | 0.233 | 0.244
4 | PC-14 | 0.502 | 0.484 | 0.553 | 0.515 | 0.394 | 0.254 | 0.28 | 0.383 | 0.247 | 0.316 | 0.787 | 0.817 | 0.901 | 0.723 | 0.829 | 0.217 | 0.202 | 0.192 | 0.16 | 0.25
5 | HARA | 0.238 | 0.237 | 0.196 | 0.222 | 0.324 | 0.306 | 0.466 | 0.317 | 0.356 | 0.273 | 0.961 | 0.75 | 1.25 | 1.04 | 1.01 | 0.474 | 0.4 | 0.634 | – | 0.508
6 | NCI-H2126 | 0.336 | 0.38 | 0.346 | 0.321 | 0.339 | 0.967 | 1.09 | 1.06 | 0.95 | 0.981 | 1.02 | 1.09 | 1.05 | 1.07 | 0.993 | 0.58 | 0.499 | 0.586 | 0.505 | 0.567
7 | NCI-H1915 | 0.545 | 0.47 | 0.53 | 0.524 | 0.492 | 0.755 | 0.665 | 0.689 | 0.686 | 0.667 | – | 0.995 | 1.01 | 1.03 | 1.08 | – | 0.239 | – | 0.241 | 0.246
8 | ChaGo-K-1 | 0.9 | 0.961 | 0.946 | 0.943 | 0.859 | 0.842 | 0.83 | 0.835 | 0.828 | 0.75 | 1.33 | 1.12 | 1.51 | 1.05 | 1.12 | 0.553 | 0.526 | 0.536 | 0.526 | 0.534
9 | LK-2 | – | 0.764 | 0.675 | 0.699 | 1.06 | – | 0.429 | 0.555 | 0.36 | 0.618 | 0.248 | 0.246 | 0.21 | 0.217 | 0.188 | 0.342 | 0.261 | 0.366 | 0.249 | 0.281
10 | 201T | 0.401 | 0.319 | 0.359 | 0.348 | 0.336 | 0.811 | 0.79 | 0.777 | 0.865 | 0.618 | 0.836 | 1.03 | 0.99 | 1.02 | 0.935 | 0.762 | 0.861 | 0.848 | 0.921 | 0.881
11 | HCC-44 | 0.912 | 0.779 | 0.851 | 0.874 | 0.805 | 0.849 | 0.853 | 0.946 | 0.876 | 0.88 | 0.699 | 0.844 | 0.875 | 0.713 | 0.739 | 0.665 | 0.898 | 0.675 | 0.868 | 1.09
12 | NCI-H647 | 0.379 | 0.262 | 0.369 | 0.442 | 0.365 | 0.379 | 0.372 | 0.558 | 0.382 | 0.414 | 1.06 | 0.987 | 1.1 | 1.21 | 1.21 | 0.369 | 0.318 | 0.487 | 0.408 | 0.364
13 | H3255 | 0.358 | 0.332 | 0.363 | 0.306 | 0.318 | 0.936 | 0.902 | 0.866 | 0.665 | 0.765 | – | 0.767 | 0.711 | 0.722 | 0.815 | 0.488 | 0.67 | 0.439 | 0.626 | 0.534
14 | NCI-H650 | 0.256 | 0.339 | 0.322 | 0.342 | 0.371 | 0.766 | 0.896 | 1.05 | 0.926 | 0.999 | 0.741 | 0.66 | 0.932 | 0.643 | 0.805 | 0.307 | 0.343 | 0.308 | 0.298 | 0.36
15 | NCI-H1395 | 0.577 | – | 0.546 | 0.556 | 0.606 | 0.401 | – | 0.393 | 0.352 | 0.336 | – | – | – | – | – | 0.734 | 0.705 | 0.694 | 0.703 | 0.62
16 | SW 900 | 0.508 | 0.464 | 0.49 | 0.477 | 0.46 | 0.65 | 0.576 | 0.745 | 0.508 | 0.26 | – | – | – | – | – | 0.349 | 0.438 | 0.452 | 0.519 | 0.442
17 | NCI-H1648 | 0.242 | 0.263 | 0.281 | 0.295 | 0.302 | 0.662 | 0.568 | 0.676 | 0.469 | 0.469 | – | – | – | – | – | 0.614 | 0.451 | 0.568 | – | 0.453
